Here are results for 2 molecules from patent US8182837B2, “Methods and compositions for reducing the risk associated with the administration of opioid analgesics in patients with diagnosed or undiagnosed respiratory illness” (QRxPharma Limited, priority 2003, dated 2012).

For test [1] the following is noted: cited from earlier work; for lower threshold for an initial dosage resulting in production of analgesia: naive human adult.
The conditions of test [2]: P=0.033; of borderline clinical significance.

Read-outs that look alike come from different tables or passages of the source.

Regarding `CN1CC[C@]23c4c5ccc(O)c4O[C@H]2[C@@H](O)C=C[C@H]3[C@H]1C5` [Morphine, morphine], the “lower threshold for an initial dosage resulting in production of analgesia” value in test [1] (intravenous route) is recorded as 4-5 mg every four hours; in test [1] (oral route) it was 30 mg every four hours. Moreover, the “difference mean, pre-treatment VAS greater than steady-state VAS” value in test [2] is on record as 1.2 cm.
`COc1ccc2c3c1O[C@H]1C(=O)CC[C@@]4(O)[C@@H](C2)N(C)CC[C@]314` [oxycodone]: the “analgesic potency relative to morphine (as a function of mass of dose)” value in test [1] (in vivo) is given as “about 1.5 times”. The “lower threshold for an initial dosage resulting in production of analgesia” value in test [1] (oral route) is given as 10 mg every four hours.
